What was measured:
[1] = Photothermal heating of micelles in water under 808 nm laser; assay type: physicochemical; settings: 808 nm laser 0.75 W/cm2, 10 min
From the text: FIGS. 1A-1H show the preparation, characterization and uses of the PC dye micelles according to the invention. […] Infrared thermal images of water and NiPC micelle solution under laser irradiation.
(§1) A total of twenty-eight phthalocyanine and nine naphthalocyanine dyes were loaded into polymeric micelles, composed of the amphiphilic diblock copolymer PEGPCL, via oil-in-water emulsions (FIGS. 16A, 16B, 16C). The nanoparticles were characterized by UV-absorption spectroscopy and dynamic light scattering. The photothermal heating potential and photothermal stability of nanoparticles were assessed by irradiating samples using an 808 nm laser for 10 minutes at 0.75 W. Photoacoustic imaging signal was assessed by loading micelles into a phantom submerged in water. The top 5 naphthalocyanines and top 4 phthalocyanines, based on PA and heating properties, were used for in vitro and in vivo studies. The cytotoxicity and photocytotoxicity of the various micelles were assessed with ovarian cancer ID8-luciferase cells and breast cancer 4T1 cells using an MTS cell proliferation assay.
Pc and Nc-loaded micelles (9.4 uM dye concentration) and controls (empty micelles and water) were prepared and then irradiated at 808 nm (0.75 W/cm2) continuously for 10 min; heating of each sample was measured as a function of time. (FIG. 21)

[2] = free dye; cited from earlier work
[3] = Photothermal stability, repeated heating and cooling cycles; assay type: physicochemical; settings: three 10-min heating/cooling cycles, 808 nm, 9.4 uM
Description: as §1
Various Pc and Nc-loaded micelles (9.4 uM) were heated multiple times, using a laser (0.75 W/cm2), in 10-min increments. (FIG. 22) The samples were allowed to cool to room temperature between successive rounds.

[4] = PCs nanoparticles retention study: dialysis against 20 mM sodium cholate; assay type: physicochemical; settings: 24 h, in words
Description: 100 μL of PCs nanoparticles was diluted in 3 mL of 20 mM sodium cholate solution. Dialysis was performed with dialysis tubing (12,000-14,000 MWCO, Fisher) into 500 mL of 20 mM sodium cholate buffer at room temperature. The buffer was changed after 4 hours. The absorbance of the solutions was recorded before and after (24 hours) dialysis to determine dye retention percentage. […] Methylene blue (MB) is the only water-soluble blue dye that is used in this study.
PCs nanoparticles were synthesized using amphiphilic diblock copolymer (PEG-PCL) (FIG. 1A, phthalocyanine dyes used in this study are shown in FIGS. 4A-4F, see methods in Example 1). Due to the hydrophobic nature of PCs, they tend to aggregate in the aqueous medium (intermolecular interaction (π-π stacking)). […] The size of nanoparticles was determined with dynamic light scattering (DLS). […] The release of the PCs from PCs loaded micelles was assessed in sodium cholate buffer by monitoring leakage of PCs dyes as a function of time. […]
100 μL of PCs nanoparticles was diluted in 3 mL of 20 mM sodium cholate solution. […] The absorbance of the solutions was recorded before and after (24 hours) dialysis to determine dye retention percentage.

[5] = test system: 4T1 triple-negative breast flank tumors; assay: Direct visualization of 4T1 flank tumors after injection of micelles (SBR by ImageJ); assay type: in vivo, BALB/c mice; settings: 10 mg/kg intravenous (retro-orbital), 24 h where stated
Description: Photographs were quantified using ImageJ. Normalized signal-to-background (SBR) measurements were made using the tumor (i.e., the intensity of the blue color) and its surrounding tissue as background after 24 h of PCs loaded micelles (10 mg/kg) and MB (10 mg/kg) intravenous (retro-orbital) injection (n=3).
To identify the PC-loaded micelle formulation that is best able to differentiate tumors from surrounding healthy tissues via direct visualization, BALB/c mice bearing syngeneic 4T1 triple-negative breast flank tumors were injected intravenously with the various micelle formulations (10 mg/kg based on the dye concentration, 24 h before evaluation). […] Normalized signal-to-background (SBR) measurements were calculated in ImageJ using the intensity of the blue color within the tumor and its surrounding tissue, respectively.
4T1 tumor cells (2×10^6 cells in 100 ul) were implanted in the right flank of BALB/c mice (aged 6 weeks). […]
To assess blue nanoparticle accumulation in the breast and spontaneous colorectal mice model, tumors were evaluated visually, and normalized signal-to-background (SBR) was quantitated for each tumor relative to the surrounding tissue by measuring the intensity of blue-green colors via ImageJ. […] Tissues were placed in microscope glass slides, imaged fluorescence in the Cy5 filter (excitation 628-40 nm, emission 692-40 nm), and analyzed via ImageJ. […]

| SMILES | PTT performance compared with other dyes [1] | clearance upon injection [2] | heating ability after repeated irradiation [3] | release from the dialysis tubing [4] | tumor contrast / dye accumulation by direct visualization [5] |
| --- | --- | --- | --- | --- | --- |
| CCCCOc1c2c(c(OCCCC)c3ccccc13)-c1nc-2nc2[n-]c(nc3nc(nc4[n-]c(n1)c1c(OCCCC)c5ccccc5c(OCCCC)c41)-c1c-3c(OCCCC)c3ccccc3c1OCCCC)c1c(OCCCC)c3ccccc3c(OCCCC)c21.[Cu+2] [CuNc Octa, Copper(II) 5,9,14,18,23,27,32,36-octabutoxy-2,3-naphthalocyanine] | outperforms all previously tested Pc/Nc dyes for PTT |  |  |  |  |
| CC1(C)C(/C=C/C=C/C=C/C=C2\N(CCCCS(=O)(=O)O)c3ccc4ccccc4c3C2(C)C)=[N+](CCCCS(=O)(=O)[O-])c2ccc3ccccc3c21 [ICG, indocyanine green] |  | cleared within minutes upon injection | lost its ability to heat |  |  |
| CN(C)c1ccc2nc3ccc(=[N+](C)C)cc-3sc2c1 [MB, Methylene blue] |  | cleared within minutes upon injection |  | released entirely | no accumulation was observed |
